From US11331314B2, “Amine substituted triazole derivatives and uses thereof” (Bayer Pharma Aktiengesellschaft, priority 2017, dated 2022) come the findings set out here.

For one assay, the target named is T1, human V2 receptor (Homo sapiens, UniProt P30518).
T1 construct: expressed in transfected cells; host or cells: CHO K1 (ATCC) expressing firefly luciferase under a CRE-responsive promoter
Put plainly: Cellular in vitro assay for determining vasopressin receptor activity, V2 receptor cell line (CRE-luciferase). Conditions: CHO cell line transfected with the human V2 receptor; agonist [Arg8]-vasopressin at EC50 concentration; read-out: IC50 hV2. Format: cell-based.

The target in the next assay is human V1a receptor (Homo sapiens, UniProt P37288). Put plainly: Cellular in vitro assay for determining vasopressin receptor activity, V1a receptor cell line (photoprotein luminescence). Format: cell-based. Conditions: for IC50: CHO cell line transfected with the human V1a receptor, agonist [Arg8]-vasopressin at EC50 concentration, read-out: IC50 hV1a; for ratio IC50 hV2/hV1a: selectivity ratio of the cellular IC50 values. The essentials:
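CHO K1 cells stably expressing human V1a receptor with aequorin photoprotein, loaded overnight with coelenterazine. Compounds preincubated 10 min at various concentrations, then challenged with [Arg^8]-vasopressin at EC50 concentration. Calcium-driven luminescence read immediately; IC50 values derived.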

Sequence of human V1a receptor (P37288 whole entry): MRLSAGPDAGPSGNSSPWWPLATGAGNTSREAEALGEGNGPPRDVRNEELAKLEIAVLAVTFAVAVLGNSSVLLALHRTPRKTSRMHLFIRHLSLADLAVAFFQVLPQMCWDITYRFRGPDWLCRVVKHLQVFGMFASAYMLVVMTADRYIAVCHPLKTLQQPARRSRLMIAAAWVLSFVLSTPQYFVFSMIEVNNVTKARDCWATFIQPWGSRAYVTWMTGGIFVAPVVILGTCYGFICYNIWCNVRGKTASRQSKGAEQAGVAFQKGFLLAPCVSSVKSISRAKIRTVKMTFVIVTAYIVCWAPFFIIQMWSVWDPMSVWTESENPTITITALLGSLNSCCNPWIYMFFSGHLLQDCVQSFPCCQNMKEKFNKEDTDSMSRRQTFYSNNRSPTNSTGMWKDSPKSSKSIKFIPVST
T1 sequence (P30518 whole entry): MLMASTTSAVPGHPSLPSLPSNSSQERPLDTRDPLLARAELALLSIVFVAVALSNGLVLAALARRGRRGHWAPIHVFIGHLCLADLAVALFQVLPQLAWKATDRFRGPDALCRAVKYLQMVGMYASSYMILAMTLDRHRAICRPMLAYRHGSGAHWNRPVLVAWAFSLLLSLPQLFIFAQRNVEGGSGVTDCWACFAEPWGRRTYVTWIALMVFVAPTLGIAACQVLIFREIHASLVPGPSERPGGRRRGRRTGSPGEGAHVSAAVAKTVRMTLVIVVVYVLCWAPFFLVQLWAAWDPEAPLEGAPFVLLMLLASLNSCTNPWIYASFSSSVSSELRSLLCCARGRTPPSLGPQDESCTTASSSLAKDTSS

In the case of `O=c1n(Cc2nc(N3CC(O)(C(F)(F)F)C3)n(-c3ccccc3Cl)n2)nc(-c2ccc(Cl)cc2)n1C[C@H](O)C(F)(F)F` [Example 36, 5-(4-Chlorophenyl)-2-({1-(2-chlorophenyl)-5-[3-hydroxy-3-(trifluoromethyl)azetidin-1-yl]-1H-1,2,4-triazol-3-yl}methyl)-4-[(2S)-3,3,3-trifluoro-2-hydroxypropyl]-2,4-dihydro-3H-1,2,4-triazol-3-one], the values for the IC50 on human V2 receptor and on human V1a receptor were 1.75 nM and 0.82 nM, respectively. The “ratio IC50 hV2/hV1a” value on human V1a receptor was 2.1.

Turning to `O=c1n(Cc2nc(N3CCC(F)(F)C3)n(-c3ccccc3Cl)n2)nc(-c2ccc(Cl)cc2)n1C[C@H](O)C(F)(F)F` [Example 37, 5-(4-Chlorophenyl)-2-{[1-(2-chlorophenyl)-5-(3,3-difluoropyrrolidin-1-yl)-1H-1,2,4-triazol-3-yl]methyl}-4-[(2S)-3,3,3-trifluoro-2-hydroxypropyl]-2,4-dihydro-3H-1,2,4-triazol-3-one], at human V2 receptor, the IC50 stood at 1.33 nM. Further, on human V1a receptor, the IC50 stood at 0.44 nM and the “ratio IC50 hV2/hV1a” value was found to be 3.1.

Turning to `O=c1n(Cc2nc(N3CCC4OCCC43)n(-c3ccccc3Cl)n2)nc(-c2ccc(Cl)cc2)n1C[C@H](O)C(F)(F)F` (stereo partly drawn) [Example 38, 5-(4-Chlorophenyl)-2-{[1-(2-chlorophenyl)-5-(hexahydro-4H-furo[3,2-b]pyrrol-4-yl)-1H-1,2,4-triazol-3-yl]methyl}-4-[(2S)-3,3,3-trifluoro-2-hydroxypropyl]-2,4-dihydro-3H-1,2,4-triazol-3-one], the 50% inhibitory concentration (IC50) is 3.55 nM at human V2 receptor and 0.4 nM on human V1a receptor. Further, the “ratio IC50 hV2/hV1a” value at human V1a receptor is listed as 8.9.

Take `CC1(C)CN(c2nc(Cn3nc(-c4ccc(Cl)cc4)n(C[C@H](O)C(F)(F)F)c3=O)nn2-c2ccccc2Cl)CCO1` [Example 39, 5-(4-Chlorophenyl)-2-{[1-(2-chlorophenyl)-5-(2,2-dimethylmorpholin-4-yl)-1H-1,2,4-triazol-3-yl]methyl}-4-[(2S)-3,3,3-trifluoro-2-hydroxypropyl]-2,4-dihydro-3H-1,2,4-triazol-3-one]: the concentration for half-maximal inhibition (IC50) on human V2 receptor came out at 18 nM. For the same molecule, on human V1a receptor, the 50% inhibitory concentration (IC50) stood at 0.58 nM and the “ratio IC50 hV2/hV1a” value came out at 31.0.

In the case of `O=C(CNc1nc(Cn2nc(-c3ccc(Cl)cc3)n(C[C@H](O)C(F)(F)F)c2=O)nn1-c1ccccc1Cl)NCC(F)(F)F` [Example 40, N^2-[1-(2-Chlorophenyl)-3-({3-(4-chlorophenyl)-5-oxo-4-[(2S)-3,3,3-trifluoro-2-hydroxypropyl]-4,5-dihydro-1H-1,2,4-triazol-1-yl}methyl)-1H-1,2,4-triazol-5-yl]-N-(2,2,2-trifluoroethyl)glycinamide], on human V2 receptor, the IC50 was 7.2 nM. For the same molecule, on human V1a receptor, the 50% inhibitory concentration (IC50) came out at 0.72 nM and the “ratio IC50 hV2/hV1a” value was found to be 10.1.

For `NS(=O)(=O)CCNc1nc(Cn2nc(-c3ccc(Cl)cc3)n(C[C@H](O)C(F)(F)F)c2=O)nn1-c1ccccc1Cl` [Example 44, 2-{[1-(2-Chlorophenyl)-3-({3-(4-chlorophenyl)-5-oxo-4-[(2S)-3,3,3-trifluoro-2-hydroxypropyl]-4,5-dihydro-1H-1,2,4-triazol-1-yl}methyl)-1H-1,2,4-triazol-5-yl]amino}ethanesulfonamide], the IC50 on human V2 receptor turned out to be 1.16 nM. Moreover, at human V1a receptor, the IC50 worked out at 0.34 nM and the “ratio IC50 hV2/hV1a” value is 3.5.

For `O=C1CCCN1CCNc1nc(Cn2nc(-c3ccc(Cl)cc3)n(C[C@H](O)C(F)(F)F)c2=O)nn1-c1ccccc1Cl` [Example 45, 5-(4-Chlorophenyl)-2-{[1-(2-chlorophenyl)-5-{[2-(2-oxopyrrolidin-1-yl)ethyl]amino}-1H-1,2,4-triazol-3-yl]methyl}-4-[(2S)-3,3,3-trifluoro-2-hydroxypropyl]-2,4-dihydro-3H-1,2,4-triazol-3-one], the 50% inhibitory concentration (IC50) on human V2 receptor is 13 nM. Also, at human V1a receptor, the 50% inhibitory concentration (IC50) amounted to 2.45 nM and the “ratio IC50 hV2/hV1a” value is on record as 5.3.

A word on the IC50: it is the concentration that gives 50% inhibition.
